Experiment [1] can be described thus: Post-emergent Test III, herbicidal activity in wheat and barley. Format: in vivo, Lolium multiflorum, Lolium rigidum. The note with it: Lolium multiflorum, post-emergence, 504 h, Table 9, post-emergent, 21 d, read-out: Visual Growth Reduction (%) 21 Days After Application LOLSS; for pest or weed control at 35 g/ha: 35 g ai/ha; for pest or weed control at 70 g/ha: 70 g ai/ha; for pest or weed control at 140 g/ha: 140 g ai/ha. An outline of the steps:
(§1)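 GR20, GR50, GR80 and GR90 come from probit analysis of visual injury scores (0 = none, 100 = complete kill) taken 21 d after treatment. Foliar application was by track sprayer delivering 187 L/ha at five rates, from high down to 1/16×, onto greenhouse plants at the 2–3 leaf stage, with solvent-blank controls.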

Experiment [2] concerns HORSS: barley, including spring and winter (Hordeum vulgare). The experiment is described as above. Type of experiment: in vivo. As to conditions: Table 9, 21 d; for pest or weed control at 35 g/ha / pest or weed control at 70 g/ha / pest or weed control at 140 g/ha: Hordeum vulgare, post-emergence, 504 h, post-emergent, read-out: Visual Growth Reduction (%) 21 Days After Application HORSS; for pest or weed control at 35 g/ha: 35 g ai/ha; for pest or weed control at 70 g/ha: 70 g ai/ha; for pest or weed control at 140 g/ha: 140 g ai/ha; for GR20 HORSS: dose for 20 percent growth reduction, probit analysis. The method, boiled down: as §1

Experiment [3] relates to KCHSC: kochia (Kochia scoparia). Described as above. Format: in vivo. The note with it: Table 9, 21 d; for pest or weed control at 35 g/ha / pest or weed control at 70 g/ha / pest or weed control at 140 g/ha: Bassia scoparia, post-emergence, 504 h, post-emergent, read-out: Visual Growth Reduction (%) 21 Days After Application KCHSC; for pest or weed control at 35 g/ha: 35 g ai/ha; for pest or weed control at 70 g/ha: 70 g ai/ha; for pest or weed control at 140 g/ha: 140 g ai/ha; for GR50 KCHSC: dose for 50 percent growth reduction; for GR50 KCHSC / GR80 KCHSC: probit analysis; for GR80 KCHSC: dose for 80 percent growth reduction. The method, boiled down: as §1

Experiment [4] deals with LOLSS: ryegrass including, Italian ryegrass (Lolium multiflorum), rigid ryegrass (Lolium rigidum), annual ryegrass (Lolium multiflorum subsp. Gaudini). The description is as above. Type of experiment: in vivo. The note with it: Table 9, probit analysis, 21 d; for GR50 LOLSS: dose for 50 percent growth reduction; for GR80 LOLSS: dose for 80 percent growth reduction. The method, boiled down: as §1

The subject of experiment [5] is SETVI: green foxtail (Setaria viridis). The experiment is described as above. Type of experiment: in vivo. As to conditions: Table 9, 21 d; for pest or weed control at 35 g/ha / pest or weed control at 70 g/ha / pest or weed control at 140 g/ha: Setaria viridis, post-emergence, 504 h, post-emergent, read-out: Visual Growth Reduction (%) 21 Days After Application SETVI; for pest or weed control at 35 g/ha: 35 g ai/ha; for pest or weed control at 70 g/ha: 70 g ai/ha; for pest or weed control at 140 g/ha: 140 g ai/ha; for GR50 SETVI: dose for 50 percent growth reduction; for GR50 SETVI / GR80 SETVI: probit analysis; for GR80 SETVI: dose for 80 percent growth reduction. The method, boiled down: as §1

Experiment [6] relates to TRZSS: wheat, including spring and winter (Triticum aestivum). The description is as above. Format: in vivo. The note with it: Table 9, 21 d; for GR20 TRZSS: dose for 20 percent growth reduction, probit analysis; for pest or weed control at 35 g/ha / pest or weed control at 70 g/ha / pest or weed control at 140 g/ha: Triticum aestivum, post-emergence, 504 h, post-emergent, read-out: Visual Growth Reduction (%) 21 Days After Application TRZSS; for pest or weed control at 35 g/ha: 35 g ai/ha; for pest or weed control at 70 g/ha: 70 g ai/ha; for pest or weed control at 140 g/ha: 140 g ai/ha. The method, boiled down: as §1

A value given as a limit tells only on which side of the number the result lay.

Regarding `COc1c(N)nc(-c2ccc(Br)cc2F)nc1C(=O)O` [Compound 46], in experiment [1], the pest or weed control at 35 g/ha lay in the range of 0 to 29%, the pest or weed control at 70 g/ha was in the range of 30 to 44% and the pest or weed control at 140 g/ha is 45 to 59%. In experiment [2], the pest or weed control at 35 g/ha lay within 60 to 74%, the pest or weed control at 70 g/ha is 60 to 74%, the pest or weed control at 140 g/ha was 85 to 94% and the “GR20 HORSS” value turned out to be 8 g ai/ha. In experiment [3], the pest or weed control at 35 g/ha fell in the range of 75 to 84%, the pest or weed control at 70 g/ha was 85 to 94%, the pest or weed control at 140 g/ha was 85 to 94% and the “GR50 KCHSC” value is 10 g ai/ha. Besides, the “GR80 KCHSC” value in experiment [3] turned out to be 45 g ai/ha. Besides, in experiment [4], the “GR50 LOLSS” value was 118 g ai/ha and the “GR80 LOLSS” value is on record as more than 140 g ai/ha. Also, in experiment [5], the pest or weed control at 35 g/ha was 0 to 29%, the pest or weed control at 70 g/ha fell in the range of 30 to 44%, the pest or weed control at 140 g/ha was 30 to 44% and the “GR50 SETVI” value was more than 140 g ai/ha. Besides, the “GR80 SETVI” value in experiment [5] is more than 140 g ai/ha. Besides, in experiment [6], the “GR20 TRZSS” value turned out to be 1 g ai/ha, the pest or weed control at 35 g/ha lay in the range of 75 to 84%, the pest or weed control at 70 g/ha is 75 to 84% and the pest or weed control at 140 g/ha was 85 to 94%.

As for `C#Cc1ccc(-c2nc(N)c(OC)c(C(=O)O)n2)cc1` [Compound 28], in experiment [1], the pest or weed control at 35 g/ha is 0 to 29% and the pest or weed control at 70 g/ha lay in the range of 0 to 29%. Besides, in experiment [2], the pest or weed control at 35 g/ha was 0 to 29%, the pest or weed control at 70 g/ha is 30 to 44% and the “GR20 HORSS” value is 43 g ai/ha. For the same compound, in experiment [3], the pest or weed control at 35 g/ha lay within 0 to 29%, the pest or weed control at 70 g/ha is 30 to 44%, the “GR50 KCHSC” value turned out to be 88 g ai/ha and the “GR80 KCHSC” value is recorded as more than 140 g ai/ha. In experiment [4], the “GR50 LOLSS” value is recorded as more than 140 g ai/ha and the “GR80 LOLSS” value was more than 140 g ai/ha. In experiment [5], the pest or weed control at 35 g/ha fell in the range of 0 to 29%, the pest or weed control at 70 g/ha fell in the range of 0 to 29%, the “GR50 SETVI” value is more than 140 g ai/ha and the “GR80 SETVI” value is listed as more than 140 g ai/ha. In experiment [6], the “GR20 TRZSS” value stood at 17 g ai/ha, the pest or weed control at 35 g/ha fell in the range of 30 to 44% and the pest or weed control at 70 g/ha was 60 to 74%.

For `Nc1cc(-c2ccc(Br)cc2)nc(C(=O)O)c1Cl` [Compound 168], in experiment [1], the pest or weed control at 35 g/ha was in the range of 0 to 29% and the pest or weed control at 70 g/ha lay in the range of 45 to 59%. Also, in experiment [2], the pest or weed control at 35 g/ha lay within 85 to 94%, the pest or weed control at 70 g/ha is 95 to 100% and the “GR20 HORSS” value came out at 1 g ai/ha. Further, in experiment [3], the pest or weed control at 35 g/ha lay within 95 to 100%, the pest or weed control at 70 g/ha was 95 to 100%, the “GR50 KCHSC” value was found to be 5 g ai/ha and the “GR80 KCHSC” value was 15 g ai/ha. In addition, in experiment [4], the “GR50 LOLSS” value amounted to 108 g ai/ha and the “GR80 LOLSS” value is listed as more than 140 g ai/ha. In addition, in experiment [5], the pest or weed control at 35 g/ha was in the range of 45 to 59%, the pest or weed control at 70 g/ha was in the range of 60 to 74%, the “GR50 SETVI” value amounted to 28 g ai/ha and the “GR80 SETVI” value was 70 g ai/ha. For the same compound, in experiment [6], the “GR20 TRZSS” value was 1 g ai/ha, the pest or weed control at 35 g/ha was 85 to 94% and the pest or weed control at 70 g/ha fell in the range of 95 to 100%.

On to `COC(=O)c1nc(-c2ccc(Br)cc2F)nc(N)c1OC` [Compound 35], for which, in experiment [1], the pest or weed control at 35 g/ha is 0 to 29% and the pest or weed control at 70 g/ha lay in the range of 30 to 44%. Also, in experiment [2], the pest or weed control at 35 g/ha was 60 to 74%, the pest or weed control at 70 g/ha lay within 60 to 74% and the “GR20 HORSS” value came out at 8 g ai/ha. Further, in experiment [3], the pest or weed control at 35 g/ha was 75 to 84%, the pest or weed control at 70 g/ha is 85 to 94%, the “GR50 KCHSC” value is reported as 8 g ai/ha and the “GR80 KCHSC” value is 37 g ai/ha. Moreover, in experiment [4], the “GR50 LOLSS” value is on record as 126 g ai/ha and the “GR80 LOLSS” value was more than 140 g ai/ha. In experiment [5], the pest or weed control at 35 g/ha was in the range of 0 to 29%, the pest or weed control at 70 g/ha lay in the range of 30 to 44%, the “GR50 SETVI” value is 79 g ai/ha and the “GR80 SETVI” value is more than 140 g ai/ha. Besides, in experiment [6], the “GR20 TRZSS” value is given as 2 g ai/ha, the pest or weed control at 35 g/ha fell in the range of 75 to 84% and the pest or weed control at 70 g/ha fell in the range of 75 to 84%.

With `C#Cc1ccc(-c2nc(N)c(OC)c(C(=O)O)n2)c(F)c1F` [Compound 154], in experiment [1], the pest or weed control at 35 g/ha fell in the range of 0 to 29%, the pest or weed control at 70 g/ha was 0 to 29% and the pest or weed control at 140 g/ha is 0 to 29%. Further, in experiment [2], the pest or weed control at 35 g/ha lay in the range of 0 to 29%, the pest or weed control at 70 g/ha is 0 to 29%, the pest or weed control at 140 g/ha fell in the range of 45 to 59% and the “GR20 HORSS” value was found to be 81 g ai/ha. In experiment [3], the pest or weed control at 35 g/ha lay within 0 to 29%, the pest or weed control at 70 g/ha is 0 to 29%, the pest or weed control at 140 g/ha is 0 to 29% and the “GR50 KCHSC” value was 57 g ai/ha. In addition, the “GR80 KCHSC” value in experiment [3] is 93 g ai/ha. For the same compound, in experiment [4], the “GR50 LOLSS” value is recorded as more than 140 g ai/ha and the “GR80 LOLSS” value is more than 140 g ai/ha. In experiment [5], the pest or weed control at 35 g/ha fell in the range of 30 to 44%, the pest or weed control at 70 g/ha lay within 60 to 74%, the pest or weed control at 140 g/ha fell in the range of 75 to 84% and the “GR50 SETVI” value is reported as 56 g ai/ha. Further, in experiment [5], the “GR80 SETVI” value is reported as 109 g ai/ha. In addition, in experiment [6], the “GR20 TRZSS” value was 49 g ai/ha, the pest or weed control at 35 g/ha was in the range of 0 to 29%, the pest or weed control at 70 g/ha is 30 to 44% and the pest or weed control at 140 g/ha was 45 to 59%.

Values taken from US9113629B2, “4-amino-6-(4-substituted-phenyl)-picolinates and 6-amino-2-(4-substituted-phenyl)-pyrimidine-4-carboxylates and their use as herbicides” (DOW AGROSCIENCES LLC, priority 2013, dated 2015).
